Source: patent US20250214947A1, “3,4-DIHYDROQUINOXALINE-2-CARBOXIMIDE DERIVATIVE COMPOUND AND PHARMACEUTICAL COMPOSITION COMPRISING SAME FOR PREVENTING OR TREATING CANCER DISEASE” (Cureverse Incorporated, priority 2022, published 2025)

Key:
[1] = target: T1, HDAC8 (Homo sapiens, UniProt Q9BY41); assay: HDAC8 inhibitory activity analysis (in vitro), RFU analysis, HDAC Fluorogenic assay kit; assay type: biochemical; conditions: 10 μM; compared with TSA or SAHA
T1 construct: purchased BPS bioscience
T1 sequence (Q9BY41 1-377): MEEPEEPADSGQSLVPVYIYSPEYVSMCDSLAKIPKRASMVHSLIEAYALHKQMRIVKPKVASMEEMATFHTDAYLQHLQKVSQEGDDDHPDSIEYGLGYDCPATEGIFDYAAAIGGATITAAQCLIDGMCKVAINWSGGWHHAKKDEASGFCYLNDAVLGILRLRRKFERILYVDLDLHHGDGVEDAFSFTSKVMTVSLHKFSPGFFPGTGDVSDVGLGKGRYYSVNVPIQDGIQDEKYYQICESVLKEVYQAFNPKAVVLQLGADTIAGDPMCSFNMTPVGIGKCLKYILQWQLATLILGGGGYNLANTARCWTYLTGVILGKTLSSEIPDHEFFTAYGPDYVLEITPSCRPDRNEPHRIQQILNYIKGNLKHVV
Experimental: The compound of the Example was diluted to 1 mM (1% DMSO concentration) using DMSO to obtain a final concentration of 10 μM, and prepared by diluting 1/10 with assay buffer. In a 96-well black round-bottom plate, 5 μL of the diluted compound of the Example, 5 μL of the diluted HDAC substrate 2A, 5 μL of BSA (1 mg/mL), 5 µL of the HDAC8 enzyme diluted to an appropriate concentration, and 30 μL of assay buffer were added, and the enzyme reaction was performed at 37° C. for 30 minutes. […] Afterwards, 50 μL of 2×HDAC developer was added to each well. After reacting for 15 minutes at room temperature, the fluorescence values at excitation wavelengths of 350-380 nm and emission wavelengths of 440-460 nm were measured using a microplate reader (Synergy Neo).

[2] = tested on: PC-3 prostate cancer cells; assay: Prostate cancer cell growth inhibition, CCK-8 assay; assay type: cell-based, human; conditions: various concentrations, FIG. 1
Experimental: PC-3, a human-derived prostate cancer cell line, was cultured with RPMI1640 (10% fetal bovine serum, 1% Penicillin Streptomycin) culture medium at 37° C., 5% CO2 condition. All cells in the experiment were subcultured when they reached a confluency of approximately 80% to 90%, and only cells that had not passed 20 passages were used.
After culturing, 10 L CCK-8 reagent was added and the absorbance was measured after 1 hour. The absorbance was measured at 450 nm using a microplate reader [BMG Labtech (Offenburg, Germany)].

[3] = tested on: Liver cancer cells Huh-7; assay: Liver cancer cell growth inhibition, CellTiter-Glo Luminescent Cell Viability Assay; assay type: cell-based; conditions: various concentrations; day 1; FIG. 6
Experimental: In addition, an analysis of liver cancer growth inhibitory activity was performed. Liver cancer cells Huh-7 cells were dispensed in a 96-well plate at 1×10^4 cells/ml, and after 20 hours, PCI34051, Example 27, and Example 35 were added at various concentrations, and cultured for 24 and 48 hours at 37° C. in a 5% CO2 atmosphere. After culturing, 100 l CellTiter-Glo Luminescent Cell Viability Assay reagent was added and the luminescence signal was measured after 0.5-1 hour. The luminescence signal was measured using IVIS [PerkinElmer, (Waltham, USA)].

[4] = target: HDAC1 (Homo sapiens, UniProt Q13547); assay: Selective inhibitory effect, HDAC Fluorogenic assay kit, HDAC1; conditions: read-out: HDAC1 enzyme activity (%)
Experimental: (§1) For analysis, HDAC substrate 3 was diluted in buffer to a concentration of 200 μM and used in HDAC 1, 2, 3, 6, and 10 assays, HDAC substrate 2A was diluted in buffer to a concentration of 200 μM and used in HDAC 4, 7, 9, and 11 assays, HDAC substrate 2A was diluted in buffer to a concentration of 20 μM and used in HDAC 8 assays. For the HDAC 11 assay, a dedicated buffer included in the kit was used separately, and the same buffer was used for the remaining assays. The compound of the Example was diluted to 1 mM (1% DMSO concentration) using DMSO to obtain a final concentration of 10 μM, and prepared by diluting 1/10 with assay buffer. In a 96-well black round-bottom plate, 5 μL of the diluted compound of the Example, 5 μL of the diluted HDAC substrate, 5 μL of BSA (1 mg/ml), 5 μL of the HDAC enzyme diluted to the appropriate concentration, and 30 μL of assay buffer were added, and the enzyme reaction was performed at 37° C. for 30 minutes. […] Afterwards, 50 μL of 2×HDAC developer was added to each well. After reacting for 15 minutes at room temperature, the fluorescence values at excitation wavelengths of 350-380 nm and emission wavelengths of 440-460 nm were measured using a microplate reader (Synergy Neo).

[5] = target: HDAC2 (Homo sapiens, UniProt Q92769); assay: Selective inhibitory effect, HDAC Fluorogenic assay kit, HDAC2; conditions: read-out: HDAC2 enzyme activity (%)
Experimental: as §1

[6] = target: T2, HDAC6 (Homo sapiens, UniProt Q9UBN7); assay: Selective inhibitory effect, HDAC Fluorogenic assay kit, HDAC6; conditions: read-out: HDAC6 enzyme activity (%)
T2 sequence (Q9UBN7 1-1215): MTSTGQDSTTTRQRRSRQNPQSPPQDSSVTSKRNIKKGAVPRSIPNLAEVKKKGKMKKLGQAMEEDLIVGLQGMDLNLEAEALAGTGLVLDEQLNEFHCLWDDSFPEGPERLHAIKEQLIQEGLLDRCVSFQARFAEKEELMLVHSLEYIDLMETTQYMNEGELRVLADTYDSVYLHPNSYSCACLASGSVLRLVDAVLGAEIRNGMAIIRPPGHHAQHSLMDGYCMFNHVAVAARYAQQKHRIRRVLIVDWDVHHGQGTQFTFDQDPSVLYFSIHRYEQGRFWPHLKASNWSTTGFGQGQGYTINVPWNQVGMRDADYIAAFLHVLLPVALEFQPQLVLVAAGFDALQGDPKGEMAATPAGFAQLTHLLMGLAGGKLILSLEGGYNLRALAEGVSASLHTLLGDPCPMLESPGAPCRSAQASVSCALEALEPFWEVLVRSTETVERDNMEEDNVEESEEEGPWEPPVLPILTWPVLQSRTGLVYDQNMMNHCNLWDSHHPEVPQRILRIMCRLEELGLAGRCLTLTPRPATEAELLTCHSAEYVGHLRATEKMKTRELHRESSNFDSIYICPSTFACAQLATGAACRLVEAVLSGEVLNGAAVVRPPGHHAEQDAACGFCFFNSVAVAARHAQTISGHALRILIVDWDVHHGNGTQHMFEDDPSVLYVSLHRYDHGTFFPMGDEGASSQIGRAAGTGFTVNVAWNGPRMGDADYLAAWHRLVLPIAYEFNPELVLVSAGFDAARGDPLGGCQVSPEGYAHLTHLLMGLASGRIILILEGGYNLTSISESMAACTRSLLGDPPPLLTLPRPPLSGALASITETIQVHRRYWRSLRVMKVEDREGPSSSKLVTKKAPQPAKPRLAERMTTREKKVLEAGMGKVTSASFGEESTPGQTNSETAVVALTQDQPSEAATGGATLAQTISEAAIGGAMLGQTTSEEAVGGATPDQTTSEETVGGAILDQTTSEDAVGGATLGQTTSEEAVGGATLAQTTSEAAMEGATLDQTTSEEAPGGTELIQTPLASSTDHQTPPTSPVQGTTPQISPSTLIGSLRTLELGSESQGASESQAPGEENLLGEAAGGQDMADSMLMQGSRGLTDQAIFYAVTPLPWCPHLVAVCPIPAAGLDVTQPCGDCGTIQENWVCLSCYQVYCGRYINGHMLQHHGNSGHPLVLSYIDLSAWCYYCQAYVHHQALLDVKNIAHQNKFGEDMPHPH
Experimental: as §1

[7] = target: T3, HDAC10 (Homo sapiens, UniProt Q969S8); assay: Selective inhibitory effect, HDAC Fluorogenic assay kit, HDAC10; conditions: read-out: HDAC10 enzyme activity (%)
T3 sequence (Q969S8 1-669): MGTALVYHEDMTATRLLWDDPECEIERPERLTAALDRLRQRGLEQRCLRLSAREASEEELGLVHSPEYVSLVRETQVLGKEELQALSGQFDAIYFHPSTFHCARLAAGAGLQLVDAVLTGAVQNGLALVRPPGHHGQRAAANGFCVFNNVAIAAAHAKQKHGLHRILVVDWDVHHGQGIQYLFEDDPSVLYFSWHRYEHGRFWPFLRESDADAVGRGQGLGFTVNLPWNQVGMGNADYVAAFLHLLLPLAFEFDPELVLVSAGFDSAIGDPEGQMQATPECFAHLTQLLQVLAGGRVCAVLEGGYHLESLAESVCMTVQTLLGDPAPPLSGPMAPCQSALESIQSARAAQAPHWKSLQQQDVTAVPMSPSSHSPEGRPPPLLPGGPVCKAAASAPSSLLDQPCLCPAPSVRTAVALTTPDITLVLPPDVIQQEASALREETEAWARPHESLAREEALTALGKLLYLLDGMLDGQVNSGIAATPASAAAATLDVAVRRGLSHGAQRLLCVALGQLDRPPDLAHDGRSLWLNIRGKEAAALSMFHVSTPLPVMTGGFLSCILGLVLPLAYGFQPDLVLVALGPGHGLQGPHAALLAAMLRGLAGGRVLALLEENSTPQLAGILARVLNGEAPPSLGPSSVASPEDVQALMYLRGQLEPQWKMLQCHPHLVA
Experimental: as §1

HDAC2, sequence (Q92769 whole entry): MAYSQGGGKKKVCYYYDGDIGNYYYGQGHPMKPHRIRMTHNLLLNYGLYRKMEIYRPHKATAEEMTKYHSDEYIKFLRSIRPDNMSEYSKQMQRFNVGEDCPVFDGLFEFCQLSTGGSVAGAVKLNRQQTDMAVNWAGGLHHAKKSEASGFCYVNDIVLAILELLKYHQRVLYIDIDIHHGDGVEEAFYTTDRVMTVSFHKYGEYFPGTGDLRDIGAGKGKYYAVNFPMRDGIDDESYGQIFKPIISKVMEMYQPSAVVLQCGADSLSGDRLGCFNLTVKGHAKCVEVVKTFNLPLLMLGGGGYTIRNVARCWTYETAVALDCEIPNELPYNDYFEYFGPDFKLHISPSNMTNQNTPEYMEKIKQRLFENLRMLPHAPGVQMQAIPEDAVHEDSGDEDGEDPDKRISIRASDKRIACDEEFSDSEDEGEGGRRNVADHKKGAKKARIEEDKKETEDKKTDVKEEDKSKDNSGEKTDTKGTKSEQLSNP
HDAC1, sequence (Q13547 whole entry): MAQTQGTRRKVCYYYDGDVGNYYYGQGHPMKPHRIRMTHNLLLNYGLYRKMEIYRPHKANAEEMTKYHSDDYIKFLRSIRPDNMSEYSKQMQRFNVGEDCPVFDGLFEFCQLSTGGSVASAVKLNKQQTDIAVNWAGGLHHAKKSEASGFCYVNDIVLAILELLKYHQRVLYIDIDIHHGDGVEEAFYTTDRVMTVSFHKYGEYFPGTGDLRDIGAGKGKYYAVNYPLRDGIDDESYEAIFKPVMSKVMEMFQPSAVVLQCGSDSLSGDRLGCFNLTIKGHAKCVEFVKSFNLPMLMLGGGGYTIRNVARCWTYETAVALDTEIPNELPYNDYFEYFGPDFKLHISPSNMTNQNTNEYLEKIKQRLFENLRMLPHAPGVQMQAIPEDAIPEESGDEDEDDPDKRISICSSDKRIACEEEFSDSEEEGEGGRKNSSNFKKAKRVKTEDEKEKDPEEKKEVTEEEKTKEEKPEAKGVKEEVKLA

## Cc1cc2nc(C(=O)Nc3cc(-c4ccc(Br)cc4)no3)c(=O)n(C[C@H](O)[C@H](O)[C@H](O)CO)c2cc1C [Example 10, N-(3-(4-bromophenyl)isoxazol-5-yl)-6,7-dimethyl-3-oxo-4-((2S,3S,4R)-2,3,4,5-tetrahydroxypentyl)-3,4-dihydroquinoxaline-2-carboxamide]
[1]
  inhibitory activity against HDAC8 (in words): inhibitory activity similar to TSA or SAHA

## Cc1cc2nc(C(=O)NCc3ccc4[nH]cnc4c3)c(=O)n(C[C@H](O)[C@H](O)[C@H](O)CO)c2cc1C [Example 34, N-((1H-benzo[d]imidazol-5-yl)methyl)-6,7-dimethyl-3-oxo-4-((2S,3S,4R)-2,3,4,5-tetrahydroxypentyl)-3,4-dihydroquinoxaline-2-carboxamide]
[1]
  inhibitory activity against HDAC8 (in words): inhibitory activity similar to TSA or SAHA

## Cc1cc2nc(C(=O)Nc3nc4c(F)cccc4[nH]3)c(=O)n(C[C@H](O)[C@H](O)[C@H](O)CO)c2cc1C [Example 35, N-(4-fluoro-1H-benzo[d]imidazol-2-yl)-6,7-dimethyl-3-oxo-4-((2S,3S,4R)-2,3,4,5-tetrahydroxypentyl)-3,4-dihydroquinoxaline-2-carboxamide]
[1]
  inhibitory activity against HDAC8 (in words): inhibitory activity similar to TSA or SAHA
[2]; 24 hours
  PC-3 cell viability after 24 hours (in words): concentration-dependent inhibition of cancer cell viability
[2]; 48 hours
  PC-3 cell viability after 48 hours (in words): cell viability was restored
[3]
  Huh-7 cell viability (in words): concentration-dependent inhibition of cancer cell viability

## Cc1cc2nc(C(=O)Nc3ccc(C(=O)NO)cc3)c(=O)n(C[C@H](O)[C@H](O)[C@H](O)CO)c2cc1C [Example 48, N-(4-(hydroxycarbamoyl)phenyl)-6,7-dimethyl-3-oxo-4-((2S,3S,4R)-2,3,4,5-tetrahydroxypentyl)-3,4-dihydroquinoxaline-2-carboxamide]
[1]
  inhibitory activity against HDAC8 (in words): inhibitory activity similar to TSA or SAHA

## Cc1cc2nc(C(=O)NCc3ccc(CC(=O)NO)cc3)c(=O)n(C[C@H](O)[C@H](O)[C@H](O)CO)c2cc1C [Example 49, N-(4-(2-(hydroxyamino)-2-oxoethyl)benzyl)-6,7-dimethyl-3-oxo-4-((2S,3S,4R)-2,3,4,5-tetrahydroxypentyl)-3,4-dihydroquinoxaline-2-carboxamide]
[1]
  inhibitory activity against HDAC8 (in words): inhibitory activity similar to TSA or SAHA

## Cc1cc2nc(C(=O)Nc3cc(C(=O)NO)ccc3C)c(=O)n(C[C@H](O)[C@H](O)[C@H](O)CO)c2cc1C [Example 51, N-(5-(hydroxycarbamoyl)-2-methylphenyl)-6,7-dimethyl-3-oxo-4-((2S,3S,4R)-2,3,4,5-tetrahydroxypentyl)-3,4-dihydroquinoxaline-2-carboxamide]
[1]
  inhibitory activity against HDAC8 (in words): inhibitory activity similar to TSA or SAHA

## COc1ccc(Cn2ccc3ccc(C(=O)NO)cc32)cc1 [PCI-34051, N-hydroxy-1-(4-methoxybenzyl)-1H-indole-6-carboxamide, reference compound]
[3]
  Huh-7 cell viability (in words): concentration-dependent inhibition of cancer cell viability

## CC(/C=C/C(=O)NO)=C\[C@@H](C)C(=O)c1ccc(N(C)C)cc1 [TSA, Trichostatin A, reference compound]
[4]
  remaining activity at 10 µM: 1.22%
[5]
  remaining activity at 10 µM: 0.7%
[6]
  remaining activity at 10 µM: 1.11%
[7]
  remaining activity at 10 µM: 1.21%
